For data set [1], the system named is mice. Put plainly: Antiseizure activity and preliminary toxicity screening. In kind it is in vivo. The note with it: ip.
For data set [2], the system named is mice. Put plainly: Rotarod test (neurotoxicity).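 For all read-outs here: in vivo neurotoxicity screen run within the NIH Epilepsy Therapy Screening Program (ETSP, formerly Anticonvulsant Screening Program).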 In kind it is in vivo. The settings on record: for Rotarod: neurotoxic at: mice, ip; for Number of animals active or toxic over the number tested: Rotarod.
Method: (§1) The assays were carried out within the Epilepsy Therapy Screening Program (ETSP, previously known as the Anticonvulsant Screening Program, ASP), Epilepsy Branch, National Institute of Neurological and Communicative Disorders and Stroke, National Institutes of Health in Rockville, MD, USA [23].
The obtained compounds were screened for antiseizure activity and neurotoxicity in vivo within the Epilepsy Therapy Screening Program (ETSP, previously known as the Anticonvulsant Screening Program, ASP), Epilepsy Branch, National Institute of Neurological and Communicative Disorders and Stroke, National Institutes of Health in Rockville, MD, USA [23].
Data set [3] relates to mice. The settings on record: for MES: active at: mice, ip; for Number of animals active or toxic over the number tested: MES.
For the next data set, the system named is rats. The settings on record: ip; cited from earlier work.
Data set [4] deals with mice. The settings on record: ip, cited from earlier work.
Data set [5] concerns mice. The note with it: 32 mA, ip; cited from earlier work.
Data set [6] relates to mice. The settings on record: ip; cited from earlier work.
In data set [7] the test system is guinea pigs. The settings on record: 0.5%, cited from earlier work.
Data set [8] concerns mice. The settings on record: cited from earlier work.
In data set [9] the test system is mice. Put plainly: Subcutaneous pentylenetetrazole seizure test (ScPTZ, SCMET). The settings on record: mice, ip, 0.5 h. Type of data set: in vivo.
Method: as §1
Data set [10] has as its system mice. Put plainly: 6 Hz test. In kind it is in vivo. The settings on record: for Number of animals active or toxic over the number tested: 6 Hz.
Method: The 6 Hz model test was carried out according to the protocol originally described by Brown et al. [54] and more recently by Barton et al. [55] and Kamiński et al. [47] and is a model of pharmacoresistant epilepsy [56].
In data set [11] the test system is mice. The data set is described as follows: Formalin test (first screening). The settings on record: ip. Type of data set: in vivo.
Method: Formalin test. The first screening in doses 15 and 30 mg/kg was performed at the Jagiellonian University-Medical College. […] After 30 min, animals were injected with 20 μL of a 0.5% formalin solution into the plantar surface of the hind paw. The total time spent by animal licking or biting the injected paw was assessed for the following 40 min.
Data set [12] relates to mice. The data set is described as follows: Tail immersion test (local anesthetic activity). Type of data set: in vivo.
Method: The tail immersion test in mice. […] The method was performed by subcutaneous (sc) injection of the tested substance dissolved in saline, at a concentration range 0.06–2%, in a constant volume of 0.2 mL about 1 cm from the root of the mouse tail. Fifteen minutes later, the 3-cm distal part of the tail was immersed into temperature-controlled water (50 ± 0.5 °C). The reaction time (latency until the tail is pulled away) was measured by the means of a chronometer. In this assay the cut-off was 20 s [29].
Data set [13] has as its system guinea pigs. The data set is described as follows: Corneal anesthesia. The note with it: 5 min. In kind it is in vivo.
Method: A. Corneal anesthesia. […] The corneal reflex was examined by irritation of right eye conjunctiva (studied eye) and a left eye conjunctiva (control eye) by horsehair. The strength of local anesthetic activity was determined from the moment of solution instillation to the moment of reflex return. The presence or lack of corneal reflex were assessed. The eye conjunctiva irritation was done 6 times (every 5 s) with the interval of 5 min during the first 30 min [31].
Data set [14] has as its system guinea pigs. Put plainly: Infiltration anesthesia (intradermal wheal test). In kind it is in vivo.
Method: A painful reaction to a prick of the skin at the centre of the wheal three times and every 5 s with 5 min intervals during the first 30 min of observation was tested. The experiment was continued to achieve a return of a reaction to the prick. The control wheal was done by an intradermal injection of 0.1 mL of 0.9% NaCl [25]. Local anesthesia was determined by calculating the ratio of the number of positive responses (no flinch) to the number of negative responses (flinch).

The source of these data is article PMC9889419 (Pharmacological Reports, 2022).

Molecules are shown by their SMILES. Read-outs that look alike come from different tables or passages of the source. Marks after values point to notes of the source that are not given here.

In the case of `Cc1cccc(Cl)c1OCC(=O)NC(C)C(=O)O` (stereo not drawn) [Compound 13, R,S-(2-(2-chloro-6-methylphenoxy)acetyl)alanine], the “Antiseizure activity and preliminary toxicity screening: result” value in the data set on mice [1] is given as “No activity”.
On to `Cc1cccc(Cl)c1OCCNC(C)(CO)CO` [Compound 7, 2-((2-(2-chloro-6-methylphenoxy)ethyl)amino)-2-methylpropane-1,3-diol], for which the melting point lay in the range of 83 to 85 °C. Besides, the “Rotarod: neurotoxic at” value in the data set with mice [2] (0.5 h) is listed as “MES: active at 100 Rotarod: neurotoxic at 100 mg/kg”. Moreover, in the data set on mice [3] (0.5 h), the “MES: active at” value is “MES: active at 100 Rotarod: neurotoxic at 100 mg/kg”.
For the compound `Cc1cccc(Cl)c1OCC(=O)N[C@H](C)C(=O)O` [Compound 14, R-(+)-(2-(2-chloro-6-methylphenoxy)acetyl)alanine], the “Antiseizure activity and preliminary toxicity screening: result” value with mice [1] is “No activity”.
As to `Cc1cccc(Cl)c1OCCNC(C)CO` (centres unmarked) [Compound 2, R,S-2-((2-(2-chloro-6-methylphenoxy)ethyl)amino)propan-1-ol], in the data set on mice [2] (0.5 h), the “Rotarod: neurotoxic at” value is given as “MES: active at 100 Rotarod: neurotoxic at 100 mg/kg”. The “MES: active at” value in the data set on mice [3] (0.5 h) is reported as “MES: active at 100 Rotarod: neurotoxic at 100 mg/kg”.
Consider `NCC1(CC(=O)O)CCCCC1` [Gabapentin], for which the “SNL ED50” value with rats was 32 mg/kg.
For the compound `CCC(O)CNCCOc1c(C)cccc1Cl` (centres unmarked) [Compound 3, R,S-1-((2-(2-chloro-6-methylphenoxy)ethyl)amino)butan-2-ol], in the data set with mice [2] (0.5 h), the “Rotarod: neurotoxic at” value turned out to be 100 mg/kg. Besides, in the data set with mice [3] (0.5 h), the “MES: active at” value was 30 mg/kg.
The corresponding values for `Cc1cccc(Cl)c1OCC(=O)NC(C)CO` (centres unmarked) [Compound 11, R,S-2-(2-chloro-6-methylphenoxy)-N-(1-hydroxypropan-2-yl)acetamide] are 100 mg/kg and 300 mg/kg.
Consider `CC(=O)[C@H]1CC[C@H]2[C@@H]3CC[C@H]4C[C@H](O)CC[C@]4(C)[C@H]3CC[C@]12C` [Allopregnanolone], for which, in the data set with mice [4], the “MES ED50” value is > 100 mg/kg and the “MES TPE” value is reported as 0.17 h. In the data set with mice [5], the “6 Hz ED50” value was 14.2 (10.3–19.4) mg/kg and the “6 Hz TPE” value is reported as 0.17 h. In the data set with mice [6], the “ScPTZ ED50” value is given as 13.7 (10.1–18.7) mg/kg and the “ScPTZ TPE” value is listed as 0.17 h.
With `CC(C)NCC(O)COc1cccc2ccccc12` (centres unmarked) [Propranolol, propranolol], the “MES ED50” value with mice [4] (Table 3) is reported as “MES: ED50 = 15–20 mg/kg”.
Turning to `CCN(CC)CC(=O)Nc1c(C)cccc1C` [Lidocaine], the “Inhibition of pain reaction” value was 22.2% with guinea pigs [7] (240 min) and 0% in the data set on guinea pigs [7] (24 h).
In the case of `NC(=O)N1c2ccccc2CC(=O)c2ccccc21` [Oxcarbazepine], in the data set with rats, the “SNL MED” value is given as 10 mg/kg.
For the compound `O=C1NC(=O)C(c2ccccc2)(c2ccccc2)N1` [Phenytoin], in the data set with mice [8] (1.0%), the “Prolongation of the time reaction” value is 18% and the “Reaction time to painful stimulus” value is reported as 5.72 ± 0.63 s. In the data set on mice [8] (2.0%), the “Prolongation of the time reaction” value is given as 84% and the “Reaction time to painful stimulus” value is reported as 8.90 ± 0.80 s.
In the case of `CCC(CO)NC(=O)COc1c(C)cccc1Cl` (centres unmarked) [Compound 12, R,S-2-(2-chloro-6-methylphenoxy)-N-(1-hydroxybutan-2-yl)acetamide], in the data set with mice [2] (0.5 h), the “Rotarod: neurotoxic at” value stood at 300 mg/kg. Further, in the data set on mice [9], the “ScPTZ: active at” value was 100 mg/kg. Also, the “MES: active at” value in the data set with mice [3] (0.5 h) is reported as 300 mg/kg.
With `Cc1cccc(Cl)c1OCCN[C@@H]1CCCC[C@H]1O` (relative stereo) [Compound 8, R,S-trans-2-((2-(2-chloro-6-methylphenoxy)ethyl)amino)cyclohexan-1-ol], in the data set with mice [2] (0.5 h), the “Rotarod: neurotoxic at” value is 100 mg/kg. For the same compound, the “MES: active at” value with mice [3] (0.5 h) is on record as 30 mg/kg.
For `Cc1cccc(Cl)c1OCCNCC(O)c1ccccc1` (centres unmarked) [Compound 9, R,S-2-((2-(2-chloro-6-methylphenoxy)ethyl)amino)-1-phenylethan-1-oll], in that order: 100 mg/kg and 30 mg/kg.
For the compound `Cc1cccc(C)c1NC(=O)C1CCCCN1C` (centres unmarked) [Mepivacaine], in the data set on mice [8] (1.0%), the “Prolongation of the time reaction” value was 94.63% and the “Reaction time to painful stimulus” value is given as 14.13 ± 2.67 s. Moreover, in the data set with mice [8] (2.0%), the “Prolongation of the time reaction” value is on record as 116.67% and the “Reaction time to painful stimulus” value is 15.73 ± 2.09 s.
For `Cc1cccc(Cl)c1OCC(=O)N[C@H]1CC[C@H](O)CC1` [Compound 18, Trans-2-(2-chloro-6-methylphenoxy)-N-(4-hydroxycyclohexyl)acetamide], the “Number of animals active or toxic over the number tested” value (“Number … over the number tested” below) is 0/4 in the data set with mice [10] (30 mg/kg, 0.5 h); 0/4 in the data set on mice [10] (30 mg/kg, 2.0 h); 4/4 with mice [10] (100 mg/kg, 0.5 h); 0/4 in the data set on mice [10] (100 mg/kg, 2.0 h); 4/4 in the data set on mice [10] (300 mg/kg, 0.5 h); 4/4 in the data set on mice [10] (300 mg/kg, 2.0 h). The “Number … over the number tested” value in the data set on mice [2] (30 mg/kg, 0.5 h) is listed as 0/8; with mice [2] (30 mg/kg, 2.0 h), 0/8; with mice [2] (100 mg/kg, 0.5 h) it was 2/8; in the data set on mice [2] (100 mg/kg, 2.0 h), 0/8; in the data set on mice [2] (300 mg/kg, 0.5 h), 8/8 (sedated); in the data set with mice [2] (300 mg/kg, 2.0 h), 0/8 (unable to grasp rotarod). Further, the “Number … over the number tested” value is 3/4 in the data set on mice [3] (30 mg/kg, 0.5 h); 0/4 with mice [3] (30 mg/kg, 2.0 h); 4/4 in the data set with mice [3] (100 mg/kg, 0.5 h); 0/4 in the data set on mice [3] (100 mg/kg, 2.0 h); 4/4 in the data set on mice [3] (300 mg/kg, 0.5 h); 4/4 in the data set with mice [3] (300 mg/kg, 2.0 h). The “8 Hz: active at” value in the data set with mice [10] (mice, ip, 0.5 h) is 100 mg/kg. Moreover, the “Rotarod: neurotoxic at” value in the data set on mice [2] (0.5 h) is listed as 100 mg/kg. In addition, in the data set on mice [3] (0.5 h), the “MES: active at” value turned out to be 30 mg/kg.
As for `CCC(NC(=O)COc1c(C)cccc1Cl)C(=O)O` (centres unmarked) [Compound 16, R,S-2-(2-(2-chloro-6-methylphenoxy)acetamido)butanoic acid], the “Antiseizure activity and preliminary toxicity screening: result” value in the data set with mice [1] is reported as “No activity”.
In the case of `CC[C@@H](CO)NCCOc1c(C)cccc1Cl.Cl` [Compound 6a, S-( +)-2-((2-(2-chloro-6-methylphenoxy)ethyl)amino)butan-1-ol hydrochloride], the “Rotarod: neurotoxic at” value in the data set on mice [2] (0.5 h) is on record as “MES: active at 100 Rotarod: neurotoxic at 100 mg/kg”. Further, the “% of effect (I phase)” value in the data set on mice [11] (30.0 mg/kg) is recorded as 33.4%. The “% of effect (II phase)” value in the data set with mice [11] (30.0 mg/kg) was found to be 10.2%. The “Time of licking paw ± SEM (I phase)” value in the data set with mice [11] (30.0 mg/kg) was determined as 59.7 ± 6.4 s. The “formalin test (I phase): active at” value with mice [11] was 30 mg/kg. Further, the “Prolongation of the time reaction” value stood at 60.0% with mice [12] (0.031%); 82.9% in the data set on mice [12] (0.094%); 348.6% with mice [12] (0.125%); 457.1% in the data set on mice [12] (0.5%); 437.1% with mice [12] (2.0%); 5.7% in the data set on mice [12] ([…]). For the same compound, the “Reaction time to painful stimulus” value in the data set with mice [12] (0.031%) was 5.6 ± 0.9 s; in the data set with mice [12] (0.094%) it was 6.4 ± 0.8 s; in the data set with mice [12] (0.125%), 15.7 ± 1.8 s; with mice [12] (0.5%) it was 19.5 ± 0.5 s; in the data set on mice [12] (2.0%), 18.8 ± 1.9 s; in the data set with mice [12] ([…]) it was 3.7 ± 0.6 s. The “Inhibition of pain reaction” value is listed as 75*** % with guinea pigs [13] (0.5%); 63.89*** % in the data set with guinea pigs [13] ([…]); 93.75*** % in the data set with guinea pigs [14] (0.5%, 30 min); 43.75* % with guinea pigs [14] (0.5%, 60 min); 25% in the data set with guinea pigs [14] (0.5%, 120 min); 94.44*** % with guinea pigs [14] ([…], 5 min). In addition, the “Inhibition of pain reaction” value in the data set with guinea pigs [14] ([…], 60 min) was 38.89* %. The “MES: active at” value in the data set with mice [3] (0.5 h) is recorded as “MES: active at 100 Rotarod: neurotoxic at 100 mg/kg”.
For the compound `Cc1cccc(Cl)c1OCCNCC(C)O` (centres unmarked) [Compound 1, R,S-1-((2-(2-chloro-6-methylphenoxy)ethyl)amino)propan-2-ol], in the data set with mice [2] (0.5 h), the “Rotarod: neurotoxic at” value is on record as 100 mg/kg. Besides, the “MES: active at” value with mice [3] (0.5 h) is given as 30 mg/kg.
Take `Cc1cccc(Cl)c1OCC(=O)NCC(C)O` (centres unmarked) [Compound 10, R,S-2-(2-chloro-6-methylphenoxy)-N-(2-hydroxypropyl)acetamide]: the “Rotarod: neurotoxic at” value with mice [2] (0.5 h) turned out to be 300 mg/kg. Also, the “ScPTZ: active at” value in the data set on mice [9] was found to be 300 mg/kg.
As for `Cc1cccc(Cl)c1OCC(=O)N[C@@H](C)C(=O)O` [Compound 15, S-(-)-(2-(2-chloro-6-methylphenoxy)acetyl)alanine], the “Antiseizure activity and preliminary toxicity screening: result” value in the data set with mice [1] was “No activity”.
